Values of other authors in article PMC2984425, “Safety and pharmacokinetics of novel selective vascular endothelial growth factor receptor-2 inhibitor YN968D1 in patients with advanced malignancies” (BMC Cancer, 2010).

Assays:
[1] = tested on: advanced refractory solid tumors; conditions: pooled analysis of 137 patients from 4 phase I trials; cited from earlier work
[2] = tested on: metastatic gastric cancer; set-up: method as in ref 16 = [16]; Moehler M Hartmann JT Lordick F Al-Batran S Reimer P Trarbach T Ebert M Daum S Weihrauch M Galle PR AIO Upper GI Group Sunitinib in patients with chemo-refractory metastatic gastric cancer: Preliminar; conditions: of 52 patients, chemo-refractory metastatic gastric cancer; cited from earlier work
renal cell carcinoma = tested on: renal cell carcinoma; set-up: method as in PMID 17215529; conditions: first-line treatment for renal cell carcinoma; cited from earlier work
colorectal cancer = tested on: colorectal cancer; set-up: method as in PMID 17947727; conditions: 84 patients with colorectal cancer, monotherapy; cited from earlier work

| Structure (SMILES) | PR, % of patients [1] [%] | evaluable patients who achieved PR [1] | patients who had SD [1] | patients with signs of disease progression by radiological imaging [1] [%] | patients who showed tumor control [2] | progression-free survival (PFS) (renal cell carcinoma) [months] | response rate (renal cell carcinoma) [%] | patients who achieved PR (colorectal cancer) | patients with stable disease (colorectal cancer) |
| --- | --- | --- | --- | --- | --- | --- | --- | --- | --- |
| CNC(=O)c1cc(Oc2ccc(NC(=O)Nc3ccc(Cl)c(C(F)(F)F)c3)cc2)ccn1 [sorafenib] | 1.4 | 2 | 38 | 70.8 | – | – | – | – | – |
| CCN(CC)CCNC(=O)c1c(C)[nH]c(/C=C2\C(=O)Nc3ccc(F)cc32)c1C [sunitinib] | – | – | – | – | 5 | 11 | 31 | 1 | 13 |
